Assay results published in PMC4774911, “Biochemical Screening of Five Protein Kinases from Plasmodium falciparum against 14,000 Cell-Active Compounds” (PLoS ONE, 2016).
Where “and” joins values, the source holds several entries; their conditions need not be identical. Equal entries are not always repeated.

Assays:
Assay in all cases: biochemical
Parameters in all cases: endogenous in cells; host or cells: K562 cell extract; species or system K562 (extract); replicate k of n = 2 (each experiment ID is one independent experiment; two experiment IDs per compound)
Conditions in all cases: read-out: KDapp
[1] = target: AURKB (Homo sapiens, UniProt Q96GD4)
[2] = target: PRKAA1 (Homo sapiens, UniProt Q13131)
[3] = target: FER (Homo sapiens, UniProt P16591)
[4] = target: T1, GAK (Homo sapiens, UniProt O14976)
T1 sequence (O14976 1-1311): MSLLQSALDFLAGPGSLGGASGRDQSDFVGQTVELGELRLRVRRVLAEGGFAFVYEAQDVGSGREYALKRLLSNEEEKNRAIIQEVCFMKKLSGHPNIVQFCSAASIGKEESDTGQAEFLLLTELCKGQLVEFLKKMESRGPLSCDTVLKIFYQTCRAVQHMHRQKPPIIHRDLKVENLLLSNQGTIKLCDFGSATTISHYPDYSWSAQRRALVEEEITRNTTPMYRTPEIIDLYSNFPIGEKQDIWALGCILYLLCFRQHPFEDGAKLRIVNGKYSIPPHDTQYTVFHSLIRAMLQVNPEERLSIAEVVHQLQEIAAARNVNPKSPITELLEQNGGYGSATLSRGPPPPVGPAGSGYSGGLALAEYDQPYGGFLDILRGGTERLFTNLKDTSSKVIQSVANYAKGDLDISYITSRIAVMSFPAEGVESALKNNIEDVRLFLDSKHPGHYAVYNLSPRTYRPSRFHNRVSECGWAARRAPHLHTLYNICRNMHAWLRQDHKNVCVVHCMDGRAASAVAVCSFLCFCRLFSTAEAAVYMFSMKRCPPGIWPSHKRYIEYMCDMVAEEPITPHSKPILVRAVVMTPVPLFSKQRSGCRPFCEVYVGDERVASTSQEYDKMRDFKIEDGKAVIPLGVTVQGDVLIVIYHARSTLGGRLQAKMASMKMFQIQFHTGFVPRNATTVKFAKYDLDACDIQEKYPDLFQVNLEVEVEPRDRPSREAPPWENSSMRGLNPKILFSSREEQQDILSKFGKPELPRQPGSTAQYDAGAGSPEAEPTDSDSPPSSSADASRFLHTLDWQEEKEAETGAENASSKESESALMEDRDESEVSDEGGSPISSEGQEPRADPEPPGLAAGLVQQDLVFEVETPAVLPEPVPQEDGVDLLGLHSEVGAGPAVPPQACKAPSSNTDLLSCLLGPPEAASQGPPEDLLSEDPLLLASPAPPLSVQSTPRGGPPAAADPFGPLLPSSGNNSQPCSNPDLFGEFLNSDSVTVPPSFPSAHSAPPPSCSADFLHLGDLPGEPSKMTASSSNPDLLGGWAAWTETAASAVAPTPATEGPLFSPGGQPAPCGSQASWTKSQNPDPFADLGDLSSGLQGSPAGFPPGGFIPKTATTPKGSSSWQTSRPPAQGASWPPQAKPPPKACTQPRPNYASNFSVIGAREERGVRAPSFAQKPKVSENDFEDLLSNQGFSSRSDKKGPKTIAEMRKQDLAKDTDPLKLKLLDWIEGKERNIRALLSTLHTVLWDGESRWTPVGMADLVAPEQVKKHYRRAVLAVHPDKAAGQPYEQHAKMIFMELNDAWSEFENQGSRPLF

[5] = target: CHEK2 (Homo sapiens, UniProt O96017)
[6] = target: PTK2 (Homo sapiens, UniProt Q05397)
[7] = target: MAP3K4 (Homo sapiens, UniProt Q9Y6R4)
[8] = target: CAMKK2 (Homo sapiens, UniProt Q96RR4)
[9] = target: CLK1 (Homo sapiens, UniProt P49759)
CLK1, sequence (P49759 whole entry): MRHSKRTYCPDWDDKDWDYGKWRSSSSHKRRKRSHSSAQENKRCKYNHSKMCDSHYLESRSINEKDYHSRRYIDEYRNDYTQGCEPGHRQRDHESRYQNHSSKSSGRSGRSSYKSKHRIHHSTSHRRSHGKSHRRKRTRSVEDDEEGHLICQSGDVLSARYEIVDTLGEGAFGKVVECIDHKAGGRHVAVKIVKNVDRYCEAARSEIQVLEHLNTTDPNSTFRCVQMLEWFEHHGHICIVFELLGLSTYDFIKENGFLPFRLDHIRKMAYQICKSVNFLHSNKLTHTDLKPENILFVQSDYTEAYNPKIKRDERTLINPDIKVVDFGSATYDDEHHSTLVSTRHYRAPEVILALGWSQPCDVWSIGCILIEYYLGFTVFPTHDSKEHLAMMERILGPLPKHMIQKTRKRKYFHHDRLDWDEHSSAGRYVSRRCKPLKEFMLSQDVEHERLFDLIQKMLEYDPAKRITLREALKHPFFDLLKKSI

AURKB, sequence (Q96GD4 whole entry): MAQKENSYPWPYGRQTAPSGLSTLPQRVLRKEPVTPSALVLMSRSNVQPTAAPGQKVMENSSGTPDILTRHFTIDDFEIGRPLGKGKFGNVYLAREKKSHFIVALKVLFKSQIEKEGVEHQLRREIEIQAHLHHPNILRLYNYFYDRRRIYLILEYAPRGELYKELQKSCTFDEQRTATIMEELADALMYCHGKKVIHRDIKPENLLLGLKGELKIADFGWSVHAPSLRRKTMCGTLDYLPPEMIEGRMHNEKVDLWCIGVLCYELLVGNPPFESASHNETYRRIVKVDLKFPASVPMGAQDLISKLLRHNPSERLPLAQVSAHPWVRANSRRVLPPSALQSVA
PRKAA1, sequence (Q13131 whole entry): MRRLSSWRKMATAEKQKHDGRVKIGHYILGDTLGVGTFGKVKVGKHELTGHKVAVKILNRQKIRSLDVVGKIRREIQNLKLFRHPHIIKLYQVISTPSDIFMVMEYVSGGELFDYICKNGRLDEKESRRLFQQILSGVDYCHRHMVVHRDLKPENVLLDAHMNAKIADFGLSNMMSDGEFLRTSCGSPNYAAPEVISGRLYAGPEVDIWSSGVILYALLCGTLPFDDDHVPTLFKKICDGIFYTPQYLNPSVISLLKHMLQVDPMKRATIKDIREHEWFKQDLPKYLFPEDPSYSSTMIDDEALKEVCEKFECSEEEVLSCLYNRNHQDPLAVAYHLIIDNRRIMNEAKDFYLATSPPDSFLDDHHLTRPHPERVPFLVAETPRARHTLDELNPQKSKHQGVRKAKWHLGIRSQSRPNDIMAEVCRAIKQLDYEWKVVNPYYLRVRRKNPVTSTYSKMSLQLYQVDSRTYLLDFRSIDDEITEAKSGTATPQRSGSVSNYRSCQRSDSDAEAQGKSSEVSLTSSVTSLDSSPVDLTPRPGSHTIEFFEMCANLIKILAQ
FER, sequence (P16591 whole entry): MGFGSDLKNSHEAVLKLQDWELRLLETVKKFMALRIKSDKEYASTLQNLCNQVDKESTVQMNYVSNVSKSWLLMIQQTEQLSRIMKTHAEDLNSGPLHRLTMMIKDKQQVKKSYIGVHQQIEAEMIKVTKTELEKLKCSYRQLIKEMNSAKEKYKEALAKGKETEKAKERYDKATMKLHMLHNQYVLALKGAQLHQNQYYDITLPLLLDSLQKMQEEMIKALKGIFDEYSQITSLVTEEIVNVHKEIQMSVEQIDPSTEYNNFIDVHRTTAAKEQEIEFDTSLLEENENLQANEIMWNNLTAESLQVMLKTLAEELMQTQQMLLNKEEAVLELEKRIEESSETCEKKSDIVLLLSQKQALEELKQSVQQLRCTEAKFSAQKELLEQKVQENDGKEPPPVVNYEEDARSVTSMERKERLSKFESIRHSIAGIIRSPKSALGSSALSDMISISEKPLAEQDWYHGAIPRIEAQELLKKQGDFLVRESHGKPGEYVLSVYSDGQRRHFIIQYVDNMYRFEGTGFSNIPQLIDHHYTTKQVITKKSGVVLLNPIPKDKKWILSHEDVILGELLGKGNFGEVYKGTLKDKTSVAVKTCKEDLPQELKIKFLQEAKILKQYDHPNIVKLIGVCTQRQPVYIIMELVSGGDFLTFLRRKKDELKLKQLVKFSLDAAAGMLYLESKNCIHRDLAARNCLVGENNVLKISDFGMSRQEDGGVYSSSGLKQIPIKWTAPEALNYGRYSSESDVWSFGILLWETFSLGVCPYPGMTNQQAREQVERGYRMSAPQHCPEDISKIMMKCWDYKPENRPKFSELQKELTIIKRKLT
CAMKK2, sequence (Q96RR4 whole entry): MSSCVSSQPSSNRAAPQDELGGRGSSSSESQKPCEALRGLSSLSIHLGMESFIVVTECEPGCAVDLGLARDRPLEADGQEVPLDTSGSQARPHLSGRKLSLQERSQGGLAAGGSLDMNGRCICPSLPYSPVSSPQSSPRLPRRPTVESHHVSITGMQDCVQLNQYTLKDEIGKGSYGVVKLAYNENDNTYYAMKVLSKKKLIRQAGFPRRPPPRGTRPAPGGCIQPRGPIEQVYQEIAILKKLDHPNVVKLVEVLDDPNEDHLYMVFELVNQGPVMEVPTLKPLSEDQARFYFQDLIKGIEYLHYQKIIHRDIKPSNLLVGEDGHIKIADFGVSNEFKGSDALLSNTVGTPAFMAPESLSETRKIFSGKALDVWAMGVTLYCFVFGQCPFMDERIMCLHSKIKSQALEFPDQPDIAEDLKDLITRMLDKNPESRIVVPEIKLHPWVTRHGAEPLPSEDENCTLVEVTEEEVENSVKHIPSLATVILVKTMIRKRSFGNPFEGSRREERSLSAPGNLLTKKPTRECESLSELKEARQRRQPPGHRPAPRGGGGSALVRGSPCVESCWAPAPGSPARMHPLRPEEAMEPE
MAP3K4, sequence (Q9Y6R4 whole entry): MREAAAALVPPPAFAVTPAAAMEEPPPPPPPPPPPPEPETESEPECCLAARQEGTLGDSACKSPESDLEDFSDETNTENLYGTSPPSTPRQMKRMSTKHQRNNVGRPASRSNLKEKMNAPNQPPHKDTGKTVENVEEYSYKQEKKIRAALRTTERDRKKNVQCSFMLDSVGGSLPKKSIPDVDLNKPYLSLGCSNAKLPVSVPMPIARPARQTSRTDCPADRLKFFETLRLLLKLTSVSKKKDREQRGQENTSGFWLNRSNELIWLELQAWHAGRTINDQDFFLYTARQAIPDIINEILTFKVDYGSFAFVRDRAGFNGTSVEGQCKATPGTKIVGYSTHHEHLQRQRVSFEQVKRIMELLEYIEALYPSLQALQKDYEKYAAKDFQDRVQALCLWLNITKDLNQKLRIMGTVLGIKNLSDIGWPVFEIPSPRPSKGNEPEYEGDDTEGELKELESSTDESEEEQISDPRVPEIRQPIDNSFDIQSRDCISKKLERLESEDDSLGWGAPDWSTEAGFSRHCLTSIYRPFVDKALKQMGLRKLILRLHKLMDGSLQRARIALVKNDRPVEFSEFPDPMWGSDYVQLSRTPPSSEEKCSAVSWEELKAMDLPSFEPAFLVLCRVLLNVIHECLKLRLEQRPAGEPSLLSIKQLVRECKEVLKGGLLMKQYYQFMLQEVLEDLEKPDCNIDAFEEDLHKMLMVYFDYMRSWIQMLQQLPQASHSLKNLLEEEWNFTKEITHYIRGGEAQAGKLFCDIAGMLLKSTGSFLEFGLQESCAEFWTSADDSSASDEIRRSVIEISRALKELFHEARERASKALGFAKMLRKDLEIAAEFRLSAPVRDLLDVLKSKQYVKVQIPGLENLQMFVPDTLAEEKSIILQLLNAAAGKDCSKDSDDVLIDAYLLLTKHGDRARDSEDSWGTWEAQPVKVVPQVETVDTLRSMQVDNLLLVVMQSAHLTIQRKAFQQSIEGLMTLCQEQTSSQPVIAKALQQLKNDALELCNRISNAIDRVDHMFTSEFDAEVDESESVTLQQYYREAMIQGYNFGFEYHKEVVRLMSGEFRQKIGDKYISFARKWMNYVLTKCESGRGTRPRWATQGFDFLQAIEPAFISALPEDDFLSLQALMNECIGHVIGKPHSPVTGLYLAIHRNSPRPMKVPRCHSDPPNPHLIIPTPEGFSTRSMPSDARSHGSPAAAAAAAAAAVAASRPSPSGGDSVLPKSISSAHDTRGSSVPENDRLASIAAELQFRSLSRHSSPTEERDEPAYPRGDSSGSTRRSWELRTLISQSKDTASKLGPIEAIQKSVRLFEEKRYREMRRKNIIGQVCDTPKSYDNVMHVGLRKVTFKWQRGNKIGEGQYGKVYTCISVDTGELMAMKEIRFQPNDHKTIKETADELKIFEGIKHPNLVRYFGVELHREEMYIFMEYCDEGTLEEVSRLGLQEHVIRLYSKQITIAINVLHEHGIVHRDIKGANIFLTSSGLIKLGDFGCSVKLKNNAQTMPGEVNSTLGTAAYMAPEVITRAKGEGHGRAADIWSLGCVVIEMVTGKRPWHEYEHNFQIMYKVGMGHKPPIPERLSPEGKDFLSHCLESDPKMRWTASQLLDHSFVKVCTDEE
CHEK2, sequence (O96017 whole entry): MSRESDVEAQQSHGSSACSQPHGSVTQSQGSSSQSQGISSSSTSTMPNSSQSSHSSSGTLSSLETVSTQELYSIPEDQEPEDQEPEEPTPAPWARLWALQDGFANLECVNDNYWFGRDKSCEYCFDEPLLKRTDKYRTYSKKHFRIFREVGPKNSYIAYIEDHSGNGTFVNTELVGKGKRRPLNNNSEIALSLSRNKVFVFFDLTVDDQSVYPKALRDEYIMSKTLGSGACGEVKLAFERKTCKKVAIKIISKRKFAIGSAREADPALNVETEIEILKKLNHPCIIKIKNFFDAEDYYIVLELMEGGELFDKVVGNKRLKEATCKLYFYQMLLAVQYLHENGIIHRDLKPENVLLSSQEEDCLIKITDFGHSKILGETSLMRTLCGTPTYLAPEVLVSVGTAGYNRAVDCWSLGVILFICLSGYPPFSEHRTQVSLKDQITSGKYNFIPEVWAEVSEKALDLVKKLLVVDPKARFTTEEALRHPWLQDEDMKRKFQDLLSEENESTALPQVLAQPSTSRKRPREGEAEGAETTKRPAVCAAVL

| SMILES | Kd [1] | Kd [2] | Kd [3] | Kd [4] | Kd [5] [µM] | Kd [6] | Kd [7] | Kd [8] | Kd [9] |
| --- | --- | --- | --- | --- | --- | --- | --- | --- | --- |
| CN(C)CC(O)COc1ccc(Nc2ncc([N+](=O)[O-])c(Nc3ccccc3O)n2)cc1.O=C(O)C(F)(F)F (stereo not drawn) [TCMDC-141399] | 1.5 µM | 2.63 µM and 2.85 µM | 0.335 µM and 0.292 µM | 0.591 µM and 0.907 µM | 9.02 | 0.0269 µM and 0.029 µM | 0.426 µM | 1.94 µM and 2.04 µM | 0.171 µM and 0.119 µM |
| CN1CCN(c2ccc(Nc3ncc(C#N)c(Nc4ccccc4C(N)=O)n3)cc2)CC1.Cl [TCMDC-134116] | 0.0143 µM and 0.0228 µM | 0.0141 µM and 0.0182 µM | 0.0793 µM and 0.0757 µM | 0.0323 µM and 0.0394 µM | 0.139 | 0.0132 µM and 0.0174 µM | 0.0198 µM and 0.0258 µM | 0.131 µM and 0.139 µM | 0.0207 µM and 0.0211 µM |
